{"source": "patent US7211566B2", "about": "(Universite De Sherbrooke, priority 2003, dated 2007)", "test_system": "STZ diabetic mice", "experiment": "Hot plate test, type-1 diabetic hyperalgesia", "format": "in vivo", "settings": "STZ diabetic mice, i.p., at time of maximal inhibition (20 min)", "procedure": "Male CD-1 mice weighting between 25–30 g (Charles River Breeding Laboratory, St-Constant, QC, Canada) were used. The mice were housed four by cage with free access to food and water. They were maintained under conditions of standard lighting, (alternating 12-h light/dark cycle), temperature (22±0.5° C.) and humidity (60±10%) with food and water available at libitum. Animals were used only once in a given experiment. Experiments were conducted between 10:00 and 18:00 h.\nStreptozotocin (Pharmacia & Upjohn Incorporation, Mississauga, ON, Canada) was dissolved in saline at a pH of 4.5 and administered to mice i.p. The BKB1 agonist desArg^9BK and compound c were dissolved in saline and administered to mice i.p.\nInsulin-dependent diabetes mellitus (IDDM) was induced in mice using STZ. Male CD-1 mice were given a single high i.p. dose of STZ (200 mg/kg) (McEvoy et al., 1984, J Clin Invest 74, 715–722). […] Blood glucose levels were determined with an automatic analyzer (Glucometer Elite XL, Bayer Incorporation, Toronto, Ontario, Canada) using glucose oxidase/potassium ferricyanide reagent strips. […]\nThe hot plate test was adapted from the technique of Eddy and Leimbach (1953, J Pharmacol Exp Ther 107, 385–389). […] When the pain threshold is reached the animal starts to react by licking its hind paw or to jump, and the reaction time is recorded with a built-in timer, with a maximum cut-off time of 30 s to avoid tissue damage. […]\nThe effect of the selected drugs on nociception was determined by converting the hot plate, the plantar stimulation, the tail immersion or the tail flick responses from latencies into MPE (Maximum Percent Effect) according to the following equation (Bhargava and Zhao, 1996, Neuropeptides, 30, 219–223): […]\nIn all tests, pre-treatment latencies were determined three times with an interval of 24 h starting three days before the injection of STZ or saline and the mean was calculated in order to obtain stable pre-drug response latency. […]", "note": "Square brackets hold non-standard residues; d marks the D form. Peptide text beside a SMILES is read from it. Oic = O=C(O)[C@@H]1C[C@@H]2CCCC[C@@H]2N1; d2Nal = N[C@H](Cc1ccc2ccccc2c1)C(=O)O; αMeF = C[C@](N)(Cc1ccccc1)C(=O)O; Orn = NCCC[C@H](N)C(=O)O"}
{"smiles": "CC[C@H](C)[C@H](NC(=O)[C@@H](Cc1ccc2ccccc2c1)NC(=O)[C@H](CO)NC(=O)[C@](C)(Cc1ccccc1)NC(=O)CNC(=O)[C@@H]1CCCN1C(=O)[C@@H]1C[C@@H]2CCCC[C@@H]2N1C(=O)[C@H](CCCNC(=N)N)NC(=O)[C@H](CCCN)NC(C)=O)C(=O)O", "note": "[compound c, Ac-Orn[Oic^2,(α-Me)Phe^5,D-βNal^7,Ile^8]desArg^9BK] (Ac-[Orn]R[Oic]PG[αMeF]S[d2Nal]I-OH)", "values": [{"measurement": "ID50", "result": "0.078 ± 0.003", "unit": "mg/kg"}]}
